# Results: patent publication US20260042731A1, “(2,4-DICHLOROPHENOXY)ACETIC ACID ANALOGS” (CORTEVA AGRISCIENCE LLC, priority 2022, published 2026)
# Where two headings read alike, the source gives them in different places.
# Columns and labels:
# [1] = system: Amaranthus rudis (AMATA), tall water hemp; assay: Postemergence herbicide evaluation, growth of Amaranthus rudis (AMATA); assay type: in vivo; conditions: for pest or weed control at 280 g/ha / pest or weed control at 560 g/ha: Amaranthus tuberculatus, post-emergence, read-out: Ave. AMATA, percent reduction in plant size relative to the untreated control
# [2] = system: Ambrosia artemisiifolia (AMBEL), common ragweed; assay: Postemergence herbicide evaluation, growth of Ambrosia artemisiifolia (AMBEL); assay type: in vivo; conditions: for pest or weed control at 280 g/ha / pest or weed control at 560 g/ha: Ambrosia artemisiifolia, post-emergence, read-out: AVE. AMBEL, percent reduction in plant size relative to the untreated control
# [3] = system: Abutilon theophrasti (ABUTH), velvetleaf; assay: Postemergence herbicide evaluation, growth of Abutilon theophrasti (ABUTH); assay type: in vivo; conditions: for pest or weed control at 280 g/ha / pest or weed control at 560 g/ha: Abutilon theophrasti, post-emergence, read-out: AVE. ABUTH, percent reduction in plant size relative to the untreated control
# [4] = system: Chenopodium album (CHEAL), common lambsquarters; assay: Postemergence herbicide evaluation, growth of Chenopodium album (CHEAL); assay type: in vivo; conditions: for pest or weed control at 280 g/ha / pest or weed control at 560 g/ha: Chenopodium album, post-emergence, read-out: Ave. CHEAL, percent reduction in plant size relative to the untreated control
# [5] = system: glyphosate resistant Conyza canadensis (L.) (ERICA), horseweed; assay: Postemergence herbicide evaluation, growth of Conyza canadensis (ERICA); assay type: in vivo; conditions: for pest or weed control at 280 g/ha / pest or weed control at 560 g/ha: Erigeron canadensis, post-emergence, read-out: Ave. ERICA, percent reduction in plant size relative to the untreated control
# [6] = Volatility of compounds measured by thermogravimetric analysis (TGA); assay type: physicochemical
# [7] = system: weeds ABUTH, AMATA, AMBEL, CHEAL, ERICA; assay: Postemergence herbicide evaluation, overall average % weed control (ABUTH, AMATA, AMBEL, CHEAL, ERICA); assay type: in vivo; conditions: for pest or weed control at 280 g/ha / pest or weed control at 560 g/ha: post-emergence, read-out: Overall Ave % Weed Control
compound,measurement,setting,value
O=C(COc1ccc(Cl)cc1Cl)Oc1cncnc1 [Compound E1],"Ave. AMATA, percent reduction in plant size relative to the untreated control","[1]; 280 g ae/ha, 7 DAA",78%
same,"Ave. AMATA, percent reduction in plant size relative to the untreated control","[1]; 280 g ae/ha, 14 DAA",75%
same,"Ave. AMATA, percent reduction in plant size relative to the untreated control","[1]; 280 g ae/ha, 21 DAA",70%
same,"Ave. AMATA, percent reduction in plant size relative to the untreated control","[1]; 560 g ae/ha, 7 DAA",73%
same,"Ave. AMATA, percent reduction in plant size relative to the untreated control","[1]; 560 g ae/ha, 14 DAA",85%
same,"Ave. AMATA, percent reduction in plant size relative to the untreated control","[1]; 560 g ae/ha, 21 DAA",85%
same,"AVE. AMBEL, percent reduction in plant size relative to the untreated control","[2]; 280 g ae/ha, 7 DAA",65%
same,"AVE. AMBEL, percent reduction in plant size relative to the untreated control","[2]; 280 g ae/ha, 14 DAA",96%
same,"AVE. AMBEL, percent reduction in plant size relative to the untreated control","[2]; 280 g ae/ha, 21 DAA",99%
same,"AVE. AMBEL, percent reduction in plant size relative to the untreated control","[2]; 560 g ae/ha, 7 DAA",73%
same,"AVE. AMBEL, percent reduction in plant size relative to the untreated control","[2]; 560 g ae/ha, 14 DAA",90%
same,"AVE. AMBEL, percent reduction in plant size relative to the untreated control","[2]; 560 g ae/ha, 21 DAA",97%
same,"AVE. ABUTH, percent reduction in plant size relative to the untreated control","[3]; 280 g ae/ha, 7 DAA",93%
same,"AVE. ABUTH, percent reduction in plant size relative to the untreated control","[3]; 280 g ae/ha, 14 DAA",96%
same,"AVE. ABUTH, percent reduction in plant size relative to the untreated control","[3]; 280 g ae/ha, 21 DAA",100%
same,"AVE. ABUTH, percent reduction in plant size relative to the untreated control","[3]; 560 g ae/ha, 7 DAA",85%
same,"AVE. ABUTH, percent reduction in plant size relative to the untreated control","[3]; 560 g ae/ha, 14 DAA",97%
same,"AVE. ABUTH, percent reduction in plant size relative to the untreated control","[3]; 560 g ae/ha, 21 DAA",100%
same,"Ave. CHEAL, percent reduction in plant size relative to the untreated control","[4]; 280 g ae/ha, 7 DAA",70%
same,"Ave. CHEAL, percent reduction in plant size relative to the untreated control","[4]; 280 g ae/ha, 14 DAA",73%
same,"Ave. CHEAL, percent reduction in plant size relative to the untreated control","[4]; 280 g ae/ha, 21 DAA",78%
same,"Ave. CHEAL, percent reduction in plant size relative to the untreated control","[4]; 560 g ae/ha, 7 DAA",75%
same,"Ave. CHEAL, percent reduction in plant size relative to the untreated control","[4]; 560 g ae/ha, 14 DAA",90%
same,"Ave. CHEAL, percent reduction in plant size relative to the untreated control","[4]; 560 g ae/ha, 21 DAA",87%
same,"Ave. ERICA, percent reduction in plant size relative to the untreated control","[5]; 280 g ae/ha, 7 DAA",68%
same,"Ave. ERICA, percent reduction in plant size relative to the untreated control","[5]; 280 g ae/ha, 14 DAA",85%
same,"Ave. ERICA, percent reduction in plant size relative to the untreated control","[5]; 280 g ae/ha, 21 DAA",95%
same,"Ave. ERICA, percent reduction in plant size relative to the untreated control","[5]; 560 g ae/ha, 7 DAA",75%
same,"Ave. ERICA, percent reduction in plant size relative to the untreated control","[5]; 560 g ae/ha, 14 DAA",85%
same,"Ave. ERICA, percent reduction in plant size relative to the untreated control","[5]; 560 g ae/ha, 21 DAA",98%
same,"TGA Data (rate of weight loss, volatility)",[6],0.8 µg/min
same,Overall Ave % Weed Control,"[7]; 280 g ae/ha, 7 DAA",75%
same,Overall Ave % Weed Control,"[7]; 280 g ae/ha, 14 DAA",85%
same,Overall Ave % Weed Control,"[7]; 280 g ae/ha, 21 DAA",88%
same,Overall Ave % Weed Control,"[7]; 560 g ae/ha, 7 DAA",76%
same,Overall Ave % Weed Control,"[7]; 560 g ae/ha, 14 DAA",89%
same,Overall Ave % Weed Control,"[7]; 560 g ae/ha, 21 DAA",93%
O=C(COc1ccc(Cl)cc1Cl)Oc1ncc(Cl)cn1 [Compound E13],pest or weed control at 280 g/ha,"[1]; 168 h, 280 g ae/ha, 7 DAA",85%
same,pest or weed control at 560 g/ha,"[1]; 168 h, 560 g ae/ha, 7 DAA",87.5%
same,pest or weed control at 280 g/ha,"[1]; 336 h, 280 g ae/ha, 14 DAA",82.5%
same,pest or weed control at 560 g/ha,"[1]; 336 h, 560 g ae/ha, 14 DAA",96%
same,pest or weed control at 280 g/ha,"[1]; 504 h, 280 g ae/ha, 21 DAA",86.5%
same,pest or weed control at 560 g/ha,"[1]; 504 h, 560 g ae/ha, 21 DAA",99%
same,pest or weed control at 280 g/ha,"[2]; 168 h, 280 g ae/ha, 7 DAA",70%
same,pest or weed control at 560 g/ha,"[2]; 168 h, 560 g ae/ha, 7 DAA",82.5%
same,pest or weed control at 280 g/ha,"[2]; 336 h, 280 g ae/ha, 14 DAA",89.5%
same,pest or weed control at 560 g/ha,"[2]; 336 h, 560 g ae/ha, 14 DAA",97.5%
same,pest or weed control at 280 g/ha,"[2]; 504 h, 280 g ae/ha, 21 DAA",100%
same,pest or weed control at 560 g/ha,"[2]; 504 h, 560 g ae/ha, 21 DAA",100%
same,pest or weed control at 280 g/ha,"[3]; 168 h, 280 g ae/ha, 7 DAA",76.5%
same,pest or weed control at 560 g/ha,"[3]; 168 h, 560 g ae/ha, 7 DAA",72.5%
same,pest or weed control at 280 g/ha,"[3]; 336 h, 280 g ae/ha, 14 DAA",90%
same,pest or weed control at 560 g/ha,"[3]; 336 h, 560 g ae/ha, 14 DAA",93.5%
same,pest or weed control at 280 g/ha,"[3]; 504 h, 280 g ae/ha, 21 DAA",100%
same,pest or weed control at 560 g/ha,"[3]; 504 h, 560 g ae/ha, 21 DAA",100%
same,pest or weed control at 280 g/ha,"[4]; 168 h, 280 g ae/ha, 7 DAA",77.5%
same,pest or weed control at 560 g/ha,"[4]; 168 h, 560 g ae/ha, 7 DAA",85%
same,pest or weed control at 280 g/ha,"[4]; 336 h, 280 g ae/ha, 14 DAA",95%
same,pest or weed control at 560 g/ha,"[4]; 336 h, 560 g ae/ha, 14 DAA",90%
same,pest or weed control at 280 g/ha,"[4]; 504 h, 280 g ae/ha, 21 DAA",96.5%
same,pest or weed control at 560 g/ha,"[4]; 504 h, 560 g ae/ha, 21 DAA",100%
same,pest or weed control at 280 g/ha,"[5]; 168 h, 280 g ae/ha, 7 DAA",82.5%
same,pest or weed control at 560 g/ha,"[5]; 168 h, 560 g ae/ha, 7 DAA",80%
same,pest or weed control at 280 g/ha,"[5]; 336 h, 280 g ae/ha, 14 DAA",100%
same,pest or weed control at 560 g/ha,"[5]; 336 h, 560 g ae/ha, 14 DAA",99%
same,pest or weed control at 280 g/ha,"[5]; 504 h, 280 g ae/ha, 21 DAA",99.5%
same,pest or weed control at 560 g/ha,"[5]; 504 h, 560 g ae/ha, 21 DAA",97.5%
same,"TGA Data (rate of weight loss, volatility)",[6],0.16 µg/min
same,pest or weed control at 280 g/ha,"[7]; 168 h, 280 g ae/ha, 7 DAA",78.3%
same,pest or weed control at 560 g/ha,"[7]; 168 h, 560 g ae/ha, 7 DAA",81.5%
same,pest or weed control at 280 g/ha,"[7]; 336 h, 280 g ae/ha, 14 DAA",91.4%
same,pest or weed control at 560 g/ha,"[7]; 336 h, 560 g ae/ha, 14 DAA",95.2%
same,pest or weed control at 280 g/ha,"[7]; 504 h, 280 g ae/ha, 21 DAA",96.5%
same,pest or weed control at 560 g/ha,"[7]; 504 h, 560 g ae/ha, 21 DAA",99.3%
